Reference: patent US8420819B2, “Process for optimizing the particle size of an active pharmaceutical ingredient by crystallization” (Boehringer Ingelheim International GmbH, priority 2009, dated 2013)

Legend:
[1] = Powder properties (flowability, bulk density) of crystallized particles; format: physicochemical; conditions: MEK/heptane process compared to particles produced from other solvent systems
[2] = Particle size of co-crystal batches, measured by Sympatec laser light diffraction; format: physicochemical; conditions: for Particle Size D10: scale-up batches from MEK/heptane crystallization, Sympatec laser light diffraction

powder properties (flowability, bulk density) [1]: excellent powder properties | D90 ([2]; MEK/heptane, initial concentration approximately 0.11-0.14 g/mL, seeded, high supersaturation): < 10 μm | D90 ([2]; approximately 1.0 wt % water in the solution (between about 0.7% and 1.2%) (FIG. 2)): 25-30 μm | particle size of the product, D90 ([2]; crystallization as part of the synthesis, from acetic acid or anisole solvate, 50.0 g, KF <0.2 wt %): about 7 μm | D90 ([2]; crystallization with 0.1 wt % water (FIG. 1)): 6 μm | D90 ([2]; crystallization with 1.1 wt % water (FIG. 2)): 26 μm | D90 ([2]; crystallization with 2.0 wt % water (FIG. 3)): 50 μm | D90 ([2]; crystallization with <0.5 wt % water in the solution (FIG. 1)): 5-10 μm | Particle Size D10 ([2]; listed as Kilo lab batch, 1.8 kg, from acetic acid solvate): 1.19 μm | Particle Size D10 ([2]; listed as Lab batch 1 from acetic acid solvate): 1.29 μm | Particle Size D10 ([2]; listed as Lab batch 2 from acetic acid solvate): 1.28 μm | Particle Size D10 ([2]; listed as Lab batch 3 from acetic acid solvate): 1.54 μm | Particle Size D10 ([2]; listed as Lab batch from new synthesis from acetic acid solvate): 1.17 μm | Particle Size D10 ([2]; listed as Lab batch, from anisole solvate): 1.31 μm | Particle Size D10 ([2]; listed as Pilot plant batch A, 11 kg, from anisole solvate): 1.61 μm | Particle Size D10 ([2]; listed as Pilot plant batch B, 22 kg, from anisole solvate): 1.67 μm | Particle Size D10 ([2]; listed as Pilot plant batch, 9 kg, from acetic acid solvate): 1.26 μm | particle size of the product, D90 ([2]; standalone re-crystallization process, 50.0 g co-crystal, KF ≦0.2 wt %): about 7 μm
Structure (SMILES): CCS(=O)(=O)c1cc2cc(C[C@](O)(CC(C)(C)c3ccc(F)cc3C(N)=O)C(F)(F)F)[nH]c2cn1.O=P(O)(O)O [2-[(3R)-3-(5-ethanesulfonyl-1H-pyrrolo[2,3-c]pyridin-2-ylmethyl)-4,4,4-trifluoro-3-hydroxy-1,1-dimethylbutyl]-5-fluorobenzamide phosphoric acid co-crystal]
